Reference: US20180002319A1, “MACROCYCLIC PICOLINAMIDE COMPOUNDS WITH FUNGICIDAL ACTIVITY” (DOW AGROSCIENCES LLC, priority 2014, published 2018)
Like-named read-outs stand apart in the source and are kept apart here.

Key:
Format in all cases: in vivo
Puccinia triticina = assay: Wheat Brown Rust (PUCCRT) fungicidal activity; details: for pest or weed control at 100 ppm: High Volume application; for pest or weed control at 121.5 g/ha: Low Volume application, 121.5 g/H
Summary of the method: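 Yuma wheat seedlings at first-leaf stage sprayed to run-off with acetone/water (Triton X-100) solutions, inoculated with P. triticina spores before or after treatment. Overnight dark dew at 22° C, then greenhouse at 24° C; percent disease control from severity versus untreated plants.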

Leptosphaeria nodorum = assay: Wheat Glume Blotch (LEPTNO) fungicidal activity; details: Parastagonospora nodorum, 24 h, 1DP (1 Day Protectant), read-out: LEPTNO Disease Control
Experimental: Technical grades of materials were dissolved in acetone, which were then mixed with nine volumes of H2O containing 110 ppm Triton X-100. The fungicide solutions were applied onto wheat seedlings using an automated booth sprayer to run-off. All sprayed plants were allowed to air dry prior to further handling. All fungicides were evaluated using the aforementioned method for their activity vs. all target diseases, unless stated otherwise. Wheat leaf blotch and brown rust activity were also evaluated using track spray applications, in which case the fungicides were formulated as EC formulations, containing 0.1% Trycol 5941 in the spray solutions. Wheat plants (variety Yuma) were grown from seed in a greenhouse in 50% mineral soil/50% soil-less Metro mix until the first leaf was fully emerged, with 7-10 seedlings per pot. These plants were inoculated with an aqueous spore suspension of Zymoseptoria tritici either prior to or after fungicide treatments. After inoculation the plants were kept in 100% relative humidity (one day in a dark dew chamber followed by two to three days in a lighted dew chamber at 20° C.) to permit spores to germinate and infect the leaf. The plants were then transferred to a greenhouse set at 20° C. for disease to develop. When disease symptoms were fully expressed on the 1st leaves of untreated plants, infection levels were assessed on a scale of 0 to 100 percent disease severity. Percent disease control was calculated using the ratio of disease severity on treated plants relative to untreated plants. Example C: Evaluation of Fungicidal Activity: Wheat Glume Blotch (Leptosphaeria nodorum; Bayer Code […]) Wheat plants (variety Yuma) were grown from seed in a greenhouse in 50% mineral soil/50% soil-less Metro mix until the first leaf was fully emerged, with 7-10 seedlings per pot. These plants were inoculated with an aqueous spore suspension of Leptosphaeria nodorum 24 hr after fungicide treatments. After inoculation the plants were kept in 100% relative humidity (one day in a dark dew chamber followed by two days in a lighted dew chamber at 20° C.) to permit spores to germinate and infect the leaf. The plants were then transferred to a greenhouse set at 20° C. for disease to develop. Fungicide formulation, application and disease assessment followed the procedures as described in the Example A.

Erysiphe cichoracearum = assay: Powdery Mildew of Cucumber (ERYSCI) fungicidal activity; details: Golovinomyces cichoracearum, 24 h, 1DP (1 Day Protectant), read-out: ERYSCI Disease Control
Experimental: Technical grades of materials were dissolved in acetone, which were then mixed with nine volumes of H2O containing 110 ppm Triton X-100. The fungicide solutions were applied onto wheat seedlings using an automated booth sprayer to run-off. All sprayed plants were allowed to air dry prior to further handling. All fungicides were evaluated using the aforementioned method for their activity vs. all target diseases, unless stated otherwise. Wheat leaf blotch and brown rust activity were also evaluated using track spray applications, in which case the fungicides were formulated as EC formulations, containing 0.1% Trycol 5941 in the spray solutions. Wheat plants (variety Yuma) were grown from seed in a greenhouse in 50% mineral soil/50% soil-less Metro mix until the first leaf was fully emerged, with 7-10 seedlings per pot. These plants were inoculated with an aqueous spore suspension of Zymoseptoria tritici either prior to or after fungicide treatments. After inoculation the plants were kept in 100% relative humidity (one day in a dark dew chamber followed by two to three days in a lighted dew chamber at 20° C.) to permit spores to germinate and infect the leaf. The plants were then transferred to a greenhouse set at 20° C. for disease to develop. When disease symptoms were fully expressed on the 1st leaves of untreated plants, infection levels were assessed on a scale of 0 to 100 percent disease severity. Percent disease control was calculated using the ratio of disease severity on treated plants relative to untreated plants. Example F: Evaluation of Fungicidal Activity: Powdery Mildew of Cucumber (Erysiphe cichoracearum; Bayer Code […]) Cucumber seedlings (variety Bush Pickle) were grown in soil-less Metro mix, with one plant per pot, and used in the test when 12 to 14 days old. Plants were inoculated with a spore suspension 24 hr following fungicide treatments. After inoculation the plants remained in the greenhouse set at 20° C. until disease was fully expressed. Fungicide formulation, application and disease assessment on the sprayed leaves followed the procedures as described in the Example A.

[1] = 24 h, 1 day protectant, read-out: PUCCRT disease control, 1DP (1 Day Protectant)
[2] = 72 h, 3 day curative, read-out: PUCCRT disease control, 3DC (3 Day Curative)

| Structure (SMILES) | pest or weed control at 100 ppm (Puccinia triticina; [1]) [%] | pest or weed control at 121.5 g/ha (Puccinia triticina; [1]) [%] | pest or weed control at 100 ppm (Puccinia triticina; [2]) [%] | pest or weed control at 121.5 g/ha (Puccinia triticina; [2]) [%] | pest or weed control at 100 ppm (Leptosphaeria nodorum) [%] | pest or weed control at 100 ppm (Erysiphe cichoracearum) [%] |
| --- | --- | --- | --- | --- | --- | --- |
| CCCCO[C@H]1CCOC[C@H](NC(=O)c2nccc(OC)c2OCOC(C)=O)C(=O)O[C@@H](C)[C@@H]1OCc1ccccc1 [Compound 2] | > 80 | > 80 | > 80 | > 80 | > 80 | < 80 |
| CCCCO[C@H]1CCOC[C@H](NC(=O)c2nccc(OC)c2OCOC(C)=O)C(=O)O[C@@H](C)[C@@H]1OC(=O)C(C)C [Compound 3] | > 80 |  | > 80 |  | > 80 |  |
| CCCCO[C@H]1CCOC[C@H](NC(=O)c2nccc(OC)c2OCOC(C)=O)C(=O)O[C@@H](C)[C@@H]1OC(=O)c1ccccc1 [Compound 4] | > 80 | > 80 | > 80 | > 80 | > 80 |  |
| CCCCO[C@H]1CCOC[C@H](NC(=O)c2nccc(OC)c2OCOC(C)=O)C(=O)O[C@@H](C)[C@@H]1OC(=O)C1CC1 [Compound 5] | > 80 |  | > 80 |  | > 80 |  |
| COc1ccnc(C(=O)N[C@H]2COCC[C@@H](OCC(C)C)[C@@H](OCC(C)C)[C@H](C)OC2=O)c1OCOC(C)=O [Compound 6] | > 80 |  | > 80 |  | > 80 |  |
| CCCCCO[C@H]1[C@H](C)OC(=O)[C@@H](NC(=O)c2nccc(OC)c2OCOC(C)=O)CCCC[C@@H]1Oc1ccccc1 [Compound 17] | > 80 |  | > 80 |  |  | < 80 |
| CCCO[C@H]1[C@H](C)OC(=O)[C@@H](NC(=O)c2nccc(OC)c2OCOC(C)=O)CCCC[C@@H]1Oc1ccccc1 [Compound 18] | > 80 |  | > 80 |  |  | < 80 |
| COc1ccnc(C(=O)N[C@H]2CCCC[C@H](Oc3ccccc3)[C@@H](Oc3ccccc3)[C@H](C)OC2=O)c1OCOC(C)=O [Compound 19] | > 80 | > 80 | > 80 | > 80 |  | < 80 |
| COc1ccnc(C(=O)N[C@H]2COCC[C@H](Cc3ccccc3)[C@@H](OCC(C)C)[C@H](C)OC2=O)c1OCOC(C)=O [Compound 20] |  | > 80 |  | > 80 | > 80 | < 80 |
| COc1ccnc(C(=O)N[C@H]2COCC[C@H](Cc3ccccc3)[C@@H](OCC(C)C)[C@H](C)OC2=O)c1OC(C)=O [Compound 21] |  | > 80 |  | > 80 | > 80 | < 80 |
| COc1ccnc(C(=O)N[C@H]2CCOC[C@H](Oc3ccccc3)[C@@H](Oc3ccccc3)[C@H](C)OC2=O)c1OCOC(C)=O [Compound 37] |  | > 80 |  | > 80 | > 80 |  |
